# Tests used:
# [1] = test system: FN^+ matrimeres secreted from MSCs; assay: Effects of pharmacological modulators on FN+ matrimere secretion from MSCs; type: cell-based, mouse; conditions: 24 hours in culture with drug vs DMSO control
# Protocol: FIGS. 6A-6C show the effects of pharmacological modulators on FN^+ matrimere secretion. (FIG. 6A) Overview of the potential biogenesis pathway for FN^+ matrimeres, known regulators, and their pharmacological modulators. (FIG. 6B) Total number of nanostructures per MSC after 24 hours in culture with drugs or DMSO control. (FIG. 6C) Percent of FN^+ particles in MSC-secreted nanostructures. (FIG. 6D) Total number of FN^+ particles per cell. *p<0.05. n=3 experiments. p-values from one-way ANOVA followed by Tukey's post-test. All data are shown as mean±s.d. BMS-P5 (CAS No. 1550371-22-6); Bafilomycin-A1 (BafA1, CAS No. 88899-55-2); curcumin analog C1 (CA-C1, CAS No. 39777-61-2); ML-SA5 (CAS No. 2418670-70-7).
# For excess DNA to be released from the nucleus, arginine in histone undergoes modification from positive to neutral charge via citrullination, which is mediated by peptidylarginine deiminase (PAD) (FIG. 6A). […] Most cells (>90%) remained viable after drug treatment. Thus, autophagy and lysosome are potential mediators of FN^+ matrimere biogenesis.
# [2] = test system: human umbilical vein endothelial cell (HUVEC) monolayer; assay: Transendothelial electrical resistance (TEER) assay of endothelial monolayer after LPS treatment; type: cell-based; conditions: cilengitide 200 nM
# Protocol: (FIG. 3A) TEER kinetics of the human umbilical vein endothelial cell (HUVEC) monolayer showing the rescue of LPS (1 μM)—compromised TEER by the CD63-depleted fraction of MSC-secreted nanostructures. (FIG. 3B) Changes in TEER from 6.5 hours to 24 hours after washing out LPS followed by treatment. ****p<0.0001. n=3 experiments. p-values were derived from one-way ANOVA followed by Dunnett's T3 post-test. All data are shown as mean±s.d.
# FIG. 8A-8B show the effects of reconstituted FN-DNA matrimeres on the recovery of TEER after 6 hours LPS (1 μM) treatment in vitro. (FIG. 8A) TEER kinetics. (FIG. 8B) Percentage of TEER recovery. n=3 experiments.
# The effect of depleting different mouse MSC-secreted nanostructure subpopulations on their ability to reverse hyperpermeability of the endothelial cell monolayer after LPS treatment in vitro was assessed by a transendothelial electrical resistance (TEER) assay. TEER was decreased with LPS over 6 hours, while TEER was only partially rescued after washing out LPS in 24 hours. […] Competitive inhibition of RGD-binding integrins by cilengitide (cyclic RGD, 200 nM) impaired the ability of CD63-depleted fraction to restore TEER (FIG. 3B). […]
# It was subsequently determined whether in vitro reconstituted FN-DNA particles could restore permeability of the endothelial cell monolayer after LPS treatment. […]
SMILES,FN^+ matrimeres secreted from MSCs [1],FN^+ particle number per cell [1],also measured
COc1cc(C(=O)N2C[C@H](N)CC[C@@H]2C)cc2nc(-c3cc4cccnc4n3CC3CC3)n(C)c12 [BMS-P5],decreased,–,–
CO/C1=C\C(C)=C\[C@@H](C)[C@@H](O)[C@@H](C)C/C(C)=C/C=C/[C@H](OC)[C@@H]([C@@H](C)[C@@H](O)[C@H](C)[C@@]2(O)C[C@@H](O)[C@H](C)[C@@H](C(C)C)O2)OC1=O [bafilomycin-A1],decreased,–,–
CC(C)[C@H]1C(=O)N[C@@H](CCCN=C(N)N)C(=O)NCC(=O)N[C@@H](CC(=O)O)C(=O)N[C@H](Cc2ccccc2)C(=O)N1C [cilengitide],–,–,effect on ability of reconstituted FN-DNA particles to restore TEER [2]: partially impaired; effect on ability of CD63-depleted fraction to restore TEER ([2]; competitive inhibition of RGD-binding integrins): impaired
"COc1ccccc1/C=C/C(=O)/C=C/c1ccccc1OC [curcumin analog C1, (1E,4E)-1,5-bis(2-methoxyphenyl)-1,4-pentadien-3-one]",–,significantly increased,–
"CN(C)S(=O)(=O)c1ccc(S(=O)(=O)Nc2cccc(Cl)c2N2CCCCC2)cc1 [ML-SA5, N′-[3-Chloro-2-(1-piperidinyl)phenyl]-N,N-dimethyl-1,4-benzenedisulfonamide]",–,significantly increased,–

# Source: patent US20260027066A1, “NANOSCALE MATRIMERES” (THE BOARD OF TRUSTEES OF THE UNIVERSITY OF ILLINOIS, priority 2022, published 2026)
